Measurements: patent US20110112149A1, “EPOTHILONE ANALOGUES, THEIR PHARMACEUTICAL COMPOSITIONS, THEIR USE AND THEIR PREPA RATIONS” (priority 2008, published 2011)
Read-outs that look alike come from different tables or passages of the source.

How the values were obtained:
Type in all cases: cell-based
MCF-7 (Breast Cancer) = assay: SRB cytotoxicity assay, MCF-7; conditions: cells cultured 3 days with compound, read-out: Activity against cancer cell lines (IC50), MCF-7 (Breast Cancer)
Excerpt: (§1) The compounds of the present invention can be screened by conventional assays known in the art. For example, cytotoxicity of the compound can be determined according to SRB assay described in Skehan et. al., J. Natl. Cancer Inst. 1990, 82: 1107, which is incorporated herein by reference.
(§2) In the study, sulforhodamine B (SRB) was used for screening the selective compounds of the present invention according to their anti-tumor activity on four different tumor cell lines. In SRB assay, the cultured cells were trypsinized, then counted and diluted to a suitable concentration (5000-7500 cells/100 μl) with a culture medium. The cells were inoculated into a 96-well microtiter plate at 100 μl suspension/well. The test compounds were diluted in the culture medium to 2×1000 nM˜2×0.001 nM, and added to each well in 100 μl after 20 hours. The cells were then cultured for 3 days, fixed with 100 μl 10% trichloroacetic acid at 4° C. for 1 hour, and then stained with 0.2% SRB/1% acetic acid at room temperature for 20 min. The unbound dye was rinsed with 1% acetic acid. The bound dye was dissolved with 200 μl 10 mM Tris-base. The amount of the bound dye was calculated from OD value detected at wavelength of 515 nm. The amount of the bound dye was in direct proportion to the total amount of cell proteins. The data was analyzed with Kaleida Graph Program, and the half inhibitory concentration (IC50) was calculated. Epothilones D and B were detected in parallel for comparison. The results of the cytotoxic experiments on the tested selective compounds according to the present invention are shown as follows. The other compounds according to the present invention may also be detected with the similar method.

[1] = tested on: NCI/ADR-RES (MDR Breast Cancer); assay: SRB cytotoxicity assay, NCI/ADR-RES; conditions: cells cultured 3 days with compound, read-out: Activity against cancer cell lines (IC50), NCI/ADR-RES (MDR Breast Cancer)
Excerpt: as §1, §2

SF-268 (Glioma) = assay: SRB cytotoxicity assay, SF-268; conditions: cells cultured 3 days with compound, read-out: Activity against cancer cell lines (IC50), SF-268 (Glioma)
Excerpt: as §1, §2

NCI-H460 (Lung Cancer) = assay: SRB cytotoxicity assay, NCI-H460; conditions: cells cultured 3 days with compound, read-out: Activity against cancer cell lines (IC50), NCI-H460 (Lung Cancer)
Excerpt: as §1, §2

[2] = Homo sapiens, NCI/ADR-RES, 72 h

Structure (SMILES)	IC50 (MCF-7 (Breast Cancer)) [nM]	IC50 [1] [nM]	IC50 (SF-268 (Glioma)) [nM]	IC50 (NCI-H460 (Lung Cancer)) [nM]	IC50 (MCF-7 (Breast Cancer); Homo sapiens, MCF7, 72 h) [nM]	IC50 [1, 2] [nM]	IC50 (SF-268 (Glioma); Homo sapiens, SF-268, 72 h) [nM]	IC50 (NCI-H460 (Lung Cancer); Homo sapiens, NCI-H460, 72 h) [nM]
C/C(=C\c1csc(C)n1)[C@@H]1C[C@@H]2O[C@]2(C)CCC[C@H](C)[C@H](O)[C@@H](C)C(=O)C(C)(C)[C@@H](O)CC(=O)O1 [Epo B, Epothilone B, reference compound]	0.5	5	0.8	0.7				
C/C1=C/C[C@@H](/C(C)=C/c2csc(C)n2)OC(=O)C[C@H](O)C(C)(C)C(=O)[C@H](C)[C@@H](O)[C@@H](C)CCC1 [Epo D, Epothilone D, reference compound]	13	42	18	17				
C/C(=C\c1csc(C)n1)C(N)C1OC(=O)CC(O)C(C)(C)C(=O)C(C)C(O)C(C)CCCC2(C)OC12 (centres unmarked) [HH3]					1	3	1	0.5
C/C(=C\c1csc(C)n1)C1OC(=O)CC(O)C(C)(C)C(=O)C(C)C(O)C(C)CCCC2(C)OC12 (centres unmarked) [HH6]					0.2	1	1	0.5
Cc1nc2cc(C3OC(=O)CC(O)C(C)(C)C(=O)C(C)C(O)C(C)CCCC4(C)OC34)ccc2s1 (centres unmarked) [HH8]					0.5	0.5	1	0.2
